For 19 compounds, GI50 and IC50 results are on record in patent US12637435B2, “Nitrogen-containing heterocyclic compound or salt thereof, use thereof, and intermediate thereof” (FUJIFILM Corporation, priority 2020, dated 2026).

Each structure is given as a SMILES string. Some results are limits rather than exact numbers.

Test [1] has as its system human myeloid leukemia cell line HL60. In words: Cell growth test, HL60 (CellTiter-Glo). It is filed as cell-based. To be noted: HL-60, 72 h, HL60 cells, 3 days, CellTiter-Glo luminescence, read-out: Cell growth inhibitory effect (GI50). The protocol: The cell growth test was carried out using the human myeloid leukemia cell line HL60 (available from ATCC, CRL-240). As a culture medium of HL60 cells, RPMI 1640 (available from FUJIFILM Wako Pure Chemical Corporation, 189-02025) supplemented with 10% fetal bovine serum (available from Thermo Fisher Scientific, Inc., 10437-028), and 1% penicillin-streptomycin (10,000 U/mL, available from Thermo Fisher Scientific, Inc., 15140-122) was used. HL60 cells were seeded on a 384-well plate (available from Corning Inc., 4588) at a cell density of 1×10^3 cells/20 μL/well. After culturing overnight, 5 μL of the test compound having a predetermined concentration was added, and 3 days later, 25 μL of CellTiter-Glo (registered trademark) Luminescent Cell Viability Assay (available from Promega Corporation, G7573) was added, and then the amount of luminescence was measured using an EnVision plate reader (available from PerkinElmer, Inc.). Since the amount of luminescence is proportional to the intracellular concentration of adenosine triphosphate (ATP), the amount of luminescence was used as an indicator of the number of viable cells. The growth inhibitory concentration for each test compound concentration was calculated by the following expression.
The growth inhibition rate at each test compound concentration was determined, and the 50% growth inhibitory concentration [GI50 (nmol/L)] was calculated using XLfit. Growth inhibition rate (%)=(amount of luminescence in test compound-added well)/(amount of luminescence in DMSO-added well)×100
The abbreviations in the table have the following meanings. • A: GI50 value<100 nmol/L • B: 100 nmol/L≤GI50 value<1,000 nmol/L • C: 1,000 nmol/L≤GI50 value
In general terms: Cellular ATP, detected with luciferase, serves as a proxy for viable cell number.

The next test addresses T1, recombinant human DHODH (Homo sapiens, UniProt Q02127).
T1 construct: DHODH, 31-395aa, Human, His tag, E. coli, ATGP1615; His tag; purchased ATGen Co. Ltd. ATGP1615; host or cells: E. coli
As to the kind of experiment: DHODH enzyme reaction inhibition test (DCIP-coupled assay). To be noted: recombinant human DHODH 0.175 μg/mL, DCIP absorbance 600 nm, 50 minutes, pH 8.0; read-out: Enzyme reaction inhibitory effect (IC50). Type of test: biochemical. The protocol: The DHODH enzyme assay was carried out with reference to “Benjamin Bader, Wolfgang Knecht, Markus Fries, and Monika Loffler, Expression, Purification, and Characterization of Histidine-Tagged Rat and Human Flavoenzyme Dihydroorotate Dehydrogenase, Protein Expression and Purification, 1998, 13, 414-422.”
The DHODH activity was evaluated using an enzyme assay system that is coupled with an assay in which a blue coloring agent 2,6-dichlorophenolindophenol (DCIP, available from MP Biomedicals, LLC, MP150118) is quenched. Purified recombinant human DHODH (DHODH, 31-395aa, Human, His tag, E. coli, ATGP1615) was purchased from ATGen Co. Ltd. The enzyme assay was carried out in a 384-well plate using a buffer solution containing 100 mmol/L Hepes (available from Dojindo Laboratories, 342-01375), 400 mmol/L NaCl (available from FUJIFILM Wako Pure Chemical Corporation, 191-01665), 10% Glycerol (available from FUJIFILM Wako Pure Chemical Corporation, 075-00616), 0.05% Triton X-100 (available from Sigma-Aldrich Co., LLC, T8787-100ML), 0.2 mmol/L Ubiquinone-10 (available from FUJIFILM Wako Pure Chemical Corporation, 216-00761), 0.1 mmol/L DHO (L-dihydroorotic acid, available from Sigma-Aldrich Co., LLC, D7128), 0.5% DMSO (dimethylsulfoxide, available from FUJIFILM Wako Pure Chemical Corporation, 047-29353), 0.175 μg/mL DHODH, and 0.12 mmol/L DCIP and having a pH adjusted to 8.0 by adding 5 mol/L potassium hydroxide (available from FUJIFILM Wako Pure Chemical Corporation, 168-21815). A test compound with a predetermined concentration was added using Biomek NX (available from Beckman Coulter Inc.), and the enzyme reaction was started by adding the substrate. The enzyme activity was assessed by measuring the decrease in DCIP absorbance (600 nm) for 50 minutes using an EnVision plate-reading spectrophotometer (available from PerkinElmer, Inc.).
The enzyme reaction inhibition rate at each test compound concentration was determined, and the 50% enzyme reaction inhibition concentration [IC50 (nmol/L)] was calculated using XLfit. Enzyme reaction inhibition rate (%)=(amount of luminescence in test compound-added well)/(amount of luminescence in DMSO-added well)×100
The abbreviations in the table have the following meanings. • A: IC50 value<10 nmol/L • B: 10 nmol/L≤IC50 value<100 nmol/L • C: 100 nmol/L≤IC50 value

T1 sequence (Q02127 31-395): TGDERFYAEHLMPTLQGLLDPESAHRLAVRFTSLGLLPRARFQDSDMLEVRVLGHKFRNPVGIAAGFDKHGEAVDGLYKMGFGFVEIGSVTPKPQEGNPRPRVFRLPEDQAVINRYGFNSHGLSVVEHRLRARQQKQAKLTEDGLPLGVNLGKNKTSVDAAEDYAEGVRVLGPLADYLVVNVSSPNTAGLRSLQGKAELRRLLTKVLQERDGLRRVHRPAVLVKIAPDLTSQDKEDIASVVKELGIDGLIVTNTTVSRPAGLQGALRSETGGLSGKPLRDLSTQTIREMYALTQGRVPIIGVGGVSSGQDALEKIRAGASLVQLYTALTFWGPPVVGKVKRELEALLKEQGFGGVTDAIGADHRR

As usually defined, the GI50 is the concentration at which growth is held to half of that of the control. One may read the IC50 as the midpoint of a concentration-inhibition curve. Take `NCc1nc(C2CC2)cnc1Nc1cccc(C2=CCOCC2)c1OCC(F)(F)F` [Example 1-17, 3-(aminomethyl)-5-cyclopropyl-N-(3-(3,6-dihydro-2H-pyran-4-yl)-2-(2,2,2-trifluoroethoxy)phenyl)pyrazine-2-amine]: the concentration for 50% growth inhibition (GI50) in test [1] is not below 1000 nM. Further, the IC50 at recombinant human DHODH is not below 100 nM.

For `CCOc1c(Nc2ncc(C3CC3)cc2C(=O)NS(C)(=O)=O)ccc(F)c1C1=CCOCC1` [Example 3-60], the GI50 in test [1] is less than 100 nM. Moreover, on recombinant human DHODH, the IC50 is less than 10 nM.

Regarding `NS(=O)(=O)NC(=O)c1nc(C2CC2)cnc1Nc1cc(F)cc(C2CCOCC2)c1OC(F)F` [Example 3-53], the GI50 in test [1] was less than 100 nM. On recombinant human DHODH, the IC50 was less than 10 nM.

For `C[C@H](Oc1c(Nc2ncc(C3CC3)nc2C(=O)NS(C)(=O)=O)cccc1C1=CCCOC1)C(F)(F)F` [Example 3-62], the GI50 in test [1] lay within 100 to 1000 nM. In addition, the IC50 on recombinant human DHODH lay within 10 to 100 nM.

Consider `O=C(NS(=O)(=O)C(F)(F)F)c1nc(C2CC2)cnc1Nc1cccc(C2=CCOCC2)c1OCC(F)(F)F` [Example 3-18], for which the GI50 in test [1] is not below 1000 nM. In addition, the IC50 on recombinant human DHODH fell in the range of 10 to 100 nM.

In the case of `CS(=O)(=O)NC(=O)c1nc(C2CC2)cnc1Nc1cccc(-c2ccc(F)cc2)c1OCC(F)(F)F` [Example 3-56], in test [1], the GI50 is less than 100 nM. In addition, the IC50 at recombinant human DHODH was less than 10 nM.

With `N#CNC(=O)c1nc(C2CC2)cnc1Nc1cccc(C2=CCOCC2)c1OCC(F)(F)F` [Example 3-1], the GI50 in test [1] was less than 100 nM. Moreover, at recombinant human DHODH, the IC50 is less than 10 nM.

Regarding `CONC(=O)c1nc(C2CC2)cnc1Nc1cccc(C2CCOCC2)c1O[C@@H](C)C(F)(F)F` [Example 3-12], the GI50 in test [1] fell in the range of 100 to 1000 nM. Moreover, the IC50 at recombinant human DHODH was in the range of 10 to 100 nM.

`CCOc1c(C2=CCOCC2)ccc(F)c1Nc1ncc(C2CC2)cc1C(=O)NS(C)(=O)=O` [Example 3-59]: the GI50 in test [1] is not below 1000 nM. For the same compound, on recombinant human DHODH, the concentration for half-maximal inhibition (IC50) was in the range of 10 to 100 nM.

For `CCc1c(Nc2ncc(C3CC3)nc2C(=O)NS(C)(=O)=O)cccc1C1CCOCC1` [Example 3-48], the GI50 in test [1] is 100 to 1000 nM. Besides, the IC50 on recombinant human DHODH was 10 to 100 nM.

On to `N#CNC(=O)c1cc(C2CC2)ccc1Nc1cncc(C2=CCOCC2)c1OCC(F)(F)F` [Example 3-2], for which the GI50 in test [1] is not below 1000 nM. Further, the IC50 on recombinant human DHODH is less than 10 nM.

Consider `O=C(NS(=O)(=O)C1CC1)c1nc(C2CC2)cnc1Nc1cccc(C2=CCOCC2)c1OCC(F)(F)F` [Example 3-21], for which, in test [1], the GI50 was not below 1000 nM. Moreover, the IC50 at recombinant human DHODH lay within 10 to 100 nM.

As to `CCc1c(Nc2ncc(C3CC3)cc2C(=O)NS(C)(=O)=O)cccc1C1CCOCC1` [Example 3-47], in test [1], the 50% growth inhibitory concentration (GI50) lay in the range of 100 to 1000 nM. Also, the IC50 on recombinant human DHODH was less than 10 nM.

Consider `N#CNCc1nc(C2CC2)cnc1Nc1cccc(C2=CCOCC2)c1OCC(F)(F)F` [Example 1-16, N-((6-cyclopropyl-3-((3-(3,6-dihydro-2H-pyran-4-yl)-2-(2,2,2-trifluoroethoxy)phenyl)amino)pyrazin-2-yl)methyl)cyanamide], for which, in test [1], the GI50 lay in the range of 100 to 1000 nM. Besides, the IC50 at recombinant human DHODH lay within 10 to 100 nM.

Take `OCc1nc(C2CC2)cnc1Nc1cccc(C2=CCOCC2)c1OCC(F)(F)F` [Example 1-3]: in test [1], the GI50 lay in the range of 100 to 1000 nM. Moreover, the IC50 on recombinant human DHODH is 10 to 100 nM.

For `C[C@H](Oc1c(Nc2ncc(C3CC3)nc2C(=O)NC#N)cccc1C1CCOCC1)C(F)(F)F` [Example 3-14], in test [1], the GI50 is less than 100 nM. In addition, at recombinant human DHODH, the half-maximal inhibitory concentration (IC50) is less than 10 nM.

For the compound `O=c1[nH]nc(-c2nc(C3CC3)cnc2Nc2cccc(C3=CCOCC3)c2OCC(F)(F)F)o1` [Example 1-9, 5-(6-cyclopropyl-3-((3-(3,6-dihydro-2H-pyran-4-yl)-2-(2,2,2-trifluoroethoxy)phenyl)amino)pyrazin-2-yl)-1,3,4-oxadiazol-2(3H)-one], the GI50 in test [1] lay within 100 to 1000 nM. The IC50 on recombinant human DHODH is 10 to 100 nM.

As for `CC(C)c1cnc(Nc2cccc(C3=CCOCC3)c2OCC(F)(F)F)c(C(=O)NS(C)(=O)=O)n1` [Example 3-65], the GI50 in test [1] is 100 to 1000 nM. Also, on recombinant human DHODH, the half-maximal inhibitory concentration (IC50) was less than 10 nM.

Consider `CS(=O)(=O)NC(=O)c1cc(C2CC2)cnc1Nc1cc(F)cc(C2CCOCC2)c1OCC(F)(F)F` [Example 3-42], for which, in test [1], the GI50 was less than 100 nM. The IC50 on recombinant human DHODH was less than 10 nM.
